In PubChem BioAssay (NCI) one finds GI50 and TGI data, which are given here for 9 compounds.

Molecules are shown by their SMILES.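 96-well plates; 48 h exposure; 5 concentrations. Endpoints by linear interpolation between flanking doses. Not reached: highest tested concentration assigned. At the GI50, growth is halved. Definition used: TGI = concentration required for complete inhibition of growth.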

Among the test systems are ACHN renal; HOP-62 NSCLC; K-562 leukemia; KM12 colon; LOX IMVI melanoma; MALME-3M melanoma; OVCAR-4 ovarian; OVCAR-5 ovarian; RPMI-8226 leukemia; UACC-62 melanoma.
What all share (experiment): DTP human tumour cell line panel, 48 h

For the compound `COc1ccc2[nH]c(-c3ccccc3)c(C=C(C#N)C#N)c2c1`, the GI50 in the experiment on ACHN renal was 7.41 µM; with HOP-62 NSCLC, 5.31 µM; with K-562 leukemia, 2.07 µM; in the experiment with KM12 colon, 3.45 µM; with LOX IMVI melanoma, 4.88 µM; in the experiment on MALME-3M melanoma it was 4.41 µM. The GI50 in the experiment on OVCAR-4 ovarian was 5.36 µM; with OVCAR-5 ovarian, 44.2 µM; in the experiment on RPMI-8226 leukemia, 2.62 µM; with UACC-62 melanoma it was 2.53 µM. The TGI with ACHN renal was > 100 µM; in the experiment on HOP-62 NSCLC it was 36.1 µM; in the experiment on K-562 leukemia, > 100 µM; in the experiment with KM12 colon, > 100 µM; in the experiment on LOX IMVI melanoma, > 100 µM; in the experiment on MALME-3M melanoma, > 100 µM. The TGI in the experiment on OVCAR-4 ovarian is > 100 µM; in the experiment with OVCAR-5 ovarian, > 100 µM; with RPMI-8226 leukemia, 20.3 µM; in the experiment on UACC-62 melanoma, 21.7 µM.
For the compound `CCOc1ccccc1NC(=O)C(=O)C(C(=O)c1ccc2ccccc2c1)C1OC(=O)c2ccccc21` (stereo not given), the TGI with ACHN renal is > 100 µM; with HOP-62 NSCLC, 31.2 µM; in the experiment on K-562 leukemia it was > 100 µM; in the experiment on KM12 colon it was 59.5 µM; in the experiment on LOX IMVI melanoma it was 29.1 µM; with MALME-3M melanoma, 30.2 µM. Also, the TGI with OVCAR-4 ovarian came out at 24.6 µM; in the experiment on OVCAR-5 ovarian, 46.1 µM; with RPMI-8226 leukemia it was 40 µM; in the experiment on UACC-62 melanoma it was 21.3 µM.
`CCC(C(=O)c1cccs1)C(O)(C(F)(F)F)C(F)(F)F` (stereo not given): the concentration for total growth inhibition (TGI) with ACHN renal, in the experiment with HOP-62 NSCLC, in the experiment on K-562 leukemia, with KM12 colon, with LOX IMVI melanoma and in the experiment with MALME-3M melanoma was > 100 µM in each case. For the same compound, the TGI in the experiment on OVCAR-4 ovarian, with OVCAR-5 ovarian, with RPMI-8226 leukemia and in the experiment with UACC-62 melanoma was > 100 µM throughout.
Consider `OC(COc1cccc2ccccc12)CN1CCN(c2ccc(Cl)cc2)CC1` (stereo not given), for which the GI50 in the experiment on ACHN renal is 11.8 µM; with HOP-62 NSCLC, 8.53 µM; in the experiment on K-562 leukemia, > 100 µM; in the experiment on KM12 colon, 38.3 µM; in the experiment on LOX IMVI melanoma it was 26.3 µM; with MALME-3M melanoma, 22.5 µM. In addition, the GI50 is 21.7 µM in the experiment on OVCAR-4 ovarian, > 100 µM in the experiment with OVCAR-5 ovarian, 42.9 µM in the experiment on RPMI-8226 leukemia and 23.3 µM with UACC-62 melanoma. The TGI is > 100 µM in the experiment with ACHN renal; 29.6 µM in the experiment with HOP-62 NSCLC; > 100 µM in the experiment with K-562 leukemia; > 100 µM in the experiment on KM12 colon; > 100 µM in the experiment on LOX IMVI melanoma; 64.7 µM with MALME-3M melanoma. Also, the TGI in the experiment on OVCAR-4 ovarian is 49.3 µM; in the experiment with OVCAR-5 ovarian, > 100 µM; in the experiment on RPMI-8226 leukemia, > 100 µM; with UACC-62 melanoma, > 100 µM.
Regarding `FC(F)(F)c1[nH]ncc1-c1nc2c(N3CCCCC3)cc3[nH]ncc3c2c2c1CCCC2`, the GI50 in the experiment with ACHN renal was 0.498 µM; in the experiment with HOP-62 NSCLC it was 0.699 µM; in the experiment on K-562 leukemia, 1.04 µM; in the experiment with KM12 colon it was 0.793 µM; in the experiment with LOX IMVI melanoma, 0.656 µM; in the experiment on MALME-3M melanoma, 0.843 µM. Moreover, the GI50 was 1.42 µM in the experiment with OVCAR-4 ovarian, 1.04 µM with OVCAR-5 ovarian, 0.534 µM in the experiment with RPMI-8226 leukemia and 0.391 µM with UACC-62 melanoma. Further, the TGI in the experiment on ACHN renal is > 28 µM; in the experiment on HOP-62 NSCLC it was 3.12 µM; in the experiment on K-562 leukemia, > 50 µM; with KM12 colon, 7.95 µM; in the experiment with LOX IMVI melanoma, 1.43 µM; in the experiment on MALME-3M melanoma it was 2.14 µM. Also, the TGI in the experiment with OVCAR-4 ovarian is > 15.3 µM; in the experiment on OVCAR-5 ovarian, 3.61 µM; with RPMI-8226 leukemia it was 2.44 µM; in the experiment with UACC-62 melanoma, 1.41 µM.
Consider `O=c1c2cc(Br)ccc2nc(-c2ccccc2)n1NCC1(O)OCC(O)C(O)C1O` (stereo not given), for which the TGI with ACHN renal, with HOP-62 NSCLC, in the experiment on K-562 leukemia, with KM12 colon, in the experiment on LOX IMVI melanoma and in the experiment on MALME-3M melanoma was > 100 µM throughout. Also, the TGI in the experiment with OVCAR-4 ovarian, with OVCAR-5 ovarian, in the experiment on RPMI-8226 leukemia and with UACC-62 melanoma was > 100 µM throughout.
As for `O=C(CCc1ccco1)NC1CCN(CC2(c3ccc(Cl)cc3)CCC2)CC1`, the GI50 in the experiment on ACHN renal is 10.5 µM; in the experiment on HOP-62 NSCLC, 16.3 µM; in the experiment with K-562 leukemia it was 2.17 µM; in the experiment with KM12 colon, 15.3 µM; with LOX IMVI melanoma, 13.5 µM; with MALME-3M melanoma, 13.8 µM. In addition, the GI50 with OVCAR-4 ovarian was 10.3 µM; in the experiment with OVCAR-5 ovarian, 15.1 µM; with RPMI-8226 leukemia it was 13.2 µM; in the experiment on UACC-62 melanoma, 15.9 µM. Also, the TGI was found to be 22.7 µM with ACHN renal; 32.7 µM in the experiment with HOP-62 NSCLC; 4.62 µM in the experiment on K-562 leukemia; 31.5 µM with KM12 colon; 27.6 µM in the experiment on LOX IMVI melanoma; 29.4 µM with MALME-3M melanoma. Further, the TGI in the experiment on OVCAR-4 ovarian amounted to 39.2 µM; in the experiment on OVCAR-5 ovarian it was 29.1 µM; with RPMI-8226 leukemia it was 35 µM; in the experiment with UACC-62 melanoma it was 30.8 µM.
With `C[C@@H]1[C@H]2[C@H](C=C3[C@@H]4CC[C@H]5Cc6nc7c(nc6C[C@]5(C)[C@H]4C[C@@H](O)[C@@]32C)C[C@@H]2CC[C@H]3C4=C[C@@H]5O[C@@]6(CC[C@](C)(CO)O6)[C@@H](C)[C@@]5(O)[C@@]4(C)[C@H](O)C[C@@H]3[C@@]2(C)C7)O[C@]12CCC(C)(C)O2`, the GI50 in the experiment with ACHN renal was 0.843 µM; with HOP-62 NSCLC it was 0.861 µM; in the experiment with K-562 leukemia, 0.345 µM; in the experiment on KM12 colon, 0.73 µM; in the experiment with LOX IMVI melanoma, 0.51 µM; with MALME-3M melanoma it was 1.58 µM. Moreover, the GI50 is 7.05 µM with OVCAR-4 ovarian, 1.22 µM in the experiment with OVCAR-5 ovarian, 0.0819 µM in the experiment with RPMI-8226 leukemia and 0.348 µM with UACC-62 melanoma. The TGI is > 100 µM in the experiment with ACHN renal; 5.73 µM in the experiment on HOP-62 NSCLC; 2.3 µM with K-562 leukemia; 16.2 µM with KM12 colon; 3.6 µM with LOX IMVI melanoma; 22.7 µM in the experiment on MALME-3M melanoma. Moreover, the TGI was > 69.7 µM in the experiment on OVCAR-4 ovarian, 19.6 µM with OVCAR-5 ovarian, 0.723 µM in the experiment on RPMI-8226 leukemia and 2.54 µM in the experiment with UACC-62 melanoma.
In the case of `C=CCC(N[C@@H](CO)c1ccccc1)c1ccccn1` (stereo not given in full), the GI50 is > 100 µM with ACHN renal; > 100 µM in the experiment with HOP-62 NSCLC; 34 µM with K-562 leukemia; > 100 µM in the experiment on KM12 colon; > 100 µM in the experiment on LOX IMVI melanoma; > 100 µM with MALME-3M melanoma. The GI50 in the experiment on OVCAR-4 ovarian was 25.6 µM; in the experiment with OVCAR-5 ovarian, > 100 µM; with RPMI-8226 leukemia, 32.7 µM; in the experiment on UACC-62 melanoma, > 100 µM. Besides, the TGI with ACHN renal, with HOP-62 NSCLC, in the experiment with K-562 leukemia, in the experiment with KM12 colon, with LOX IMVI melanoma and in the experiment with MALME-3M melanoma was > 100 µM in each case. Besides, the TGI in the experiment on OVCAR-4 ovarian, in the experiment on OVCAR-5 ovarian, with RPMI-8226 leukemia and in the experiment with UACC-62 melanoma was > 100 µM throughout.
